Test results taken from patent publication US8030321B2, “Benzofuro- and benzothienopyrimidine modulators of the histamine H4 receptor” (Janssen Pharmaceutica, NV, priority 2006, dated 2011).
Structures can show the parent of a compound that is named as a salt.

target: T1, human histamine H4 receptor (Homo sapiens, UniProt Q9H3N8); test: Binding Assay on Recombinant Human Histamine H4 Receptor; details: not given
T1 construct: expressed in transfected cells; host or cells: SK-N-MC cells or COS7 cells, transiently transfected; cell membranes used
Method: Binding Assay on Recombinant Human Histamine H4 Receptor
SK-N-MC cells or COS7 cells were transiently transfected with pH4R and grown in 150 cm^2 tissue culture dishes. Cells were washed with saline solution, scraped with a cell scraper and collected by centrifugation (1000 rpm, 5 min). Cell membranes were prepared by homogenization of the cell pellet in 20 mM Tris-HCl with a polytron tissue homogenizer for 10 sec at high speed. Homogenate was centrifuged at 1000 rpm for 5 min at 4° C. […] The final pellet was resuspended in 50 mM Tris-HCl. Cell membranes were incubated with ^3H-histamine (5-70 nM) in the presence or absence of excess histamine (10,000 nM). […] Membranes were harvested by rapid filtration over Whatman GF/C filters and washed 4 times with ice-cold 50 mM Tris HCl. Filters were then dried, mixed with scintillant and counted for radioactivity. SK-N-MC or COS7 cells expressing human histamine H4 receptor were used to measure the affinity of binding of other compounds and their ability to displace ^3H-ligand binding by incubating the above-described reaction in the presence of various concentrations of inhibitor or compound to be tested.

T1 sequence (Q9H3N8 whole entry): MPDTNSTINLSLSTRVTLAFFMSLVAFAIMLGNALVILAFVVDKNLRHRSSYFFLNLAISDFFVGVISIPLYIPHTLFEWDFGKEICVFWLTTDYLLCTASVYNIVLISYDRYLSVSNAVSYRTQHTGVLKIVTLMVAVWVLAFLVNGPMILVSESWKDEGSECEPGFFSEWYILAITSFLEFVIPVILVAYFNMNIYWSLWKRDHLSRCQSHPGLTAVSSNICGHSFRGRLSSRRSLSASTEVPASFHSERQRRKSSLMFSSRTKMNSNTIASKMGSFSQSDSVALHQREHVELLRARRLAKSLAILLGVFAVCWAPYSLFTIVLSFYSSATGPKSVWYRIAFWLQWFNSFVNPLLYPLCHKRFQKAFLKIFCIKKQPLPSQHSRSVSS

First: CN1C[C@@H]2C[C@H]1CN2c1nc(N)nc2c1oc1ccc(Cl)cc12 [Example 106, (S,S)-8-Chloro-4-(5-methyl-2,5-diaza-bicyclo[2.2.1]hept-2-yl)-benzo[4,5]furo[3,2-d]pyrimidin-2-ylamine trifluoroacetic acid salt]
Second: Nc1nc(N2C[C@@H]3C[C@H]2CN3)c2oc3ccc(Cl)cc3c2n1 [Example 11, (S,S)-8-Chloro-4-(2,5-diaza-bicyclo[2.2.1]hept-2-yl)-benzo[4,5]furo[3,2-d]pyrimidin-2-ylamine]
The Ki of the first is 2.3-fold lower: 11 nM for the first, 25 nM for the second.

`Nc1nc(N2C[C@@H]3CCCN[C@@H]3C2)c2oc3ccc(Cl)cc3c2n1` [Example 83, 8-Chloro-4-(octahydro-pyrrolo[3,4-b]pyridin-6-yl)-benzo[4,5]furo[3,2-d]pyrimidin-2-ylamine citrate salt] gave a Ki of 4.7 nM.

same assay, conditions: competition binding with 3H-histamine (5 nM), membranes of SK-N-MC or COS7 cells expressing human H4 receptor; Cheng-Prusoff, KD 5 nM; average of results obtained; read-out: Ki

Compared with `CN1CCN(c2nc(N)nc3c2oc2ccc(F)c(F)c23)CC1` [Example 145, 8,9-Difluoro-4-(4-methyl-piperazin-1-yl)-benzo[4,5]furo[3,2-d]pyrimidin-2-ylamine trifluoroacetic acid salt], `CN1CCN(c2nc(N)nc3c2oc2ccc(Cl)cc23)CC1` [Example 1, 8-Chloro-4-(4-methyl-piperazin-1-yl)-benzo[4,5]furo[3,2-d]pyrimidin-2-ylamine] is 1100-fold lower in Ki: 160 nM for the first, 0.14 nM for the second.

First: CN[C@@H]1CCN(c2nc(N)nc3c2sc2ccc(Br)cc23)C1 [Example 48, (R)-8-Bromo-4-(3-methylamino-pyrrolidin-1-yl)-benzo[4,5]thieno[3,2-d]pyrimidin-2-ylamine hydrochloride salt]
Second: CN[C@H]1CCN(c2nc(N)nc3c2sc2ccc(Cl)cc23)C1 [Example 65, (S)-8-Chloro-4-(3-methylamino-pyrrolidin-1-yl)-benzo[4,5]thieno[3,2-d]pyrimidin-2-ylamine trifluoroacetic acid salt]
The Ki of the first is 48-fold lower: 2.1 nM for the first, 100 nM for the second. The first binds more tightly here.

Going from `CN(C)C1CCN(c2nc(N)nc3c2oc2ccc(Cl)cc23)C1` (centres unmarked) [Example 15, 8-Chloro-4-(3-dimethylamino-pyrrolidin-1-yl)-benzo[4,5]furo[3,2-d]pyrimidin-2-ylamine trifluoroacetic acid salt] to `Nc1nc(N2CCC(N)C2)c2oc3ccc(Cl)cc3c2n1` (centres unmarked) [Example 16, 4-(3-Amino-pyrrolidin-1-yl)-8-chloro-benzo[4,5]furo[3,2-d]pyrimidin-2-ylamine trifluoroacetic acid salt], the Ki falls from 6.2 nM to 2.3 nM (2.7-fold). The second binds more tightly here.

Compared with `CN1CCN(c2nc(NCCO)nc3c2oc2ccccc23)CC1` [Example 116, 2-[4-(4-Methyl-piperazin-1-yl)-benzo[4,5]furo[3,2-d]pyrimidin-2-ylamino]-ethanol], `CSCCNc1nc(N2CCN(C)CC2)c2oc3ccc(Cl)cc3c2n1` [Example 123, [8-Chloro-4-(4-methyl-piperazin-1-yl)-benzo[4,5]furo[3,2-d]pyrimidin-2-yl]-(2-methylsulfanyl-ethyl)-amine] is 7.6-fold higher in Ki: 68 nM for the first, 520 nM for the second.

Compared with `CC1CN(c2nc(N)nc3c2oc2ccc(Cl)cc23)CC(C)N1` (mixture of isomers) [Example 128, 8-Chloro-4-(3,5-dimethyl-piperazin-1-yl)-benzo[4,5]furo[3,2-d]pyrimidin-2-ylamine trifluoroacetic acid salt], `Nc1nc(N2CCC[C@H](N)C2)c2oc3ccc(Cl)cc3c2n1` [Example 13, (S)-4-(3-Amino-piperidin-1-yl)-8-chloro-benzo[4,5]furo[3,2-d]pyrimidin-2-ylamine trifluoroacetic acid salt] is lower in Ki: greater than 10000 nM for the first, 9.6 nM for the second.

Compared with `CN(C)[C@@H]1CCN(c2nc(N)nc3c2oc2ccccc23)C1` [Example 22, (R)-4-(3-Dimethylamino-pyrrolidin-1-yl)-benzo[4,5]furo[3,2-d]pyrimidin-2-ylamine trifluoroacetic acid salt], `Nc1nc(N2CCNCC2)c2oc3ccccc3c2n1` [Example 23, 4-piperazin-1-yl-benzo[4,5]furo[3,2-d]pyrimidin-2-ylamine trifluoroacetic acid salt] is 1.8-fold higher in Ki: 12 nM for the first, 21 nM for the second.

First: CN1CCN(c2nc(N)nc3c2sc2ccc(F)cc23)CC1 [Example 70, 8-Fluoro-4-(4-methyl-piperazin-1-yl)-benzo[4,5]thieno[3,2-d]pyrimidin-2-ylamine trifluoroacetic acid salt]
Second: CN1CCN(c2nc(N)nc3c2sc2ccc(Br)cc23)CC1 [Example 50, 8-Bromo-4-(4-methyl-piperazin-1-yl)-benzo[4,5]thieno[3,2-d]pyrimidin-2-ylamine hydrochloride salt]
The Ki of the first is 19-fold higher: 18.9 nM for the first, 1 nM for the second.

First: CN[C@@H]1CCN(c2nc(N)nc3c2oc2ncccc23)C1 [Example 42, (R)-8-(3-Methylamino-pyrrolidin-1-yl)-9-oxa-1,5,7-triaza-fluoren-6-ylamine]
Second: CN[C@@H]1CCN(c2nc(N)nc3c2oc2ncc(Cl)cc23)C1 [Example 109, (R)-3-Chloro-8-(3-methylamino-pyrrolidin-1-yl)-9-oxa-1,5,7-triaza-fluoren-6-ylamine]
The Ki of the first is 3.7-fold lower: 71 nM for the first, 260 nM for the second. The first binds more tightly here.

First: CN(C)C1CCN(c2nc(N)nc3c2oc2c(Cl)cc(Cl)cc23)C1 (centres unmarked) [Example 35, 6,8-Dichloro-4-(3-dimethylamino-pyrrolidin-1-yl)-benzo[4,5]furo[3,2-d]pyrimidin-2-ylamine trifluoroacetic acid salt]
Second: Nc1nc(N2CCN3CCCCC3C2)c2oc3c(Cl)cc(Cl)cc3c2n1 (centres unmarked) [Example 37, 6,8-Dichloro-4-(octahydro-pyrido[1,2-a]pyrazin-2-yl)-benzo[4,5]furo[3,2-d]pyrimidin-2-ylamine trifluoroacetic acid salt]
The Ki of the first is 2.1-fold lower: 380 nM for the first, 790 nM for the second. The first binds more tightly here.

Going from `CN[C@H]1CCN(c2nc(N)nc3c2sc2cc(C(F)(F)F)ccc23)C1` [Example 51, (S)-4-(3-Methylamino-pyrrolidin-1-yl)-7-trifluoromethyl-benzo[4,5]thieno[3,2-d]pyrimidin-2-ylamine trifluoroacetic acid salt] to `CN[C@@H]1CCN(c2nc(N)nc3c2sc2cc(Cl)ccc23)C1` [Example 60, (R)-7-Chloro-4-(3-methylamino-pyrrolidin-1-yl)-benzo[4,5]thieno[3,2-d]pyrimidin-2-ylamine trifluoroacetic acid salt], the Ki falls from greater than 10000 nM to 5.2 nM.

Going from `CN[C@@H]1CCN(c2nc(N)nc3c2oc2ccc(Br)cc23)C1` [Example 19, (R)-8-Bromo-4-(3-methylamino-pyrrolidin-1-yl)-benzo[4,5]furo[3,2-d]pyrimidin-2-ylamine trifluoroacetic acid salt] to `CN[C@@H]1CCN(c2nc(N)nc3c2oc2ccc(Cl)c(Cl)c23)C1` [Example 99, (R)-8,9-Dichloro-4-(3-methylamino-pyrrolidin-1-yl)-benzo[4,5]furo[3,2-d]pyrimidin-2-ylamine trifluoroacetic acid salt], the Ki rises from 0.74 nM to 10 nM (14-fold).

`Nc1nc(N2CCNCC2)c2oc3ccc(Cl)cc3c2n1` [Example 14, 8-Chloro-4-piperazin-1-yl-benzo[4,5]furo[3,2-d]pyrimidin-2-ylamine trifluoroacetic acid salt] and `Nc1nc(N2CCCNCC2)c2oc3ccc(Cl)cc3c2n1` [Example 7, 8-Chloro-4-[1,4]diazepan-1-yl-benzo[4,5]furo[3,2-d]pyrimidin-2-ylamine trifluoroacetic acid salt] are the same in Ki: 1.1 nM for the first, 1.1 nM for the second.

Compared with `Nc1nc(NCC2CNC2)c2oc3ccc(Cl)cc3c2n1` [Example 110, N^4-Azetidin-3-ylmethyl-8-chloro-benzo[4,5]furo[3,2-d]pyrimidine-2,4-diamine trifluoroacetic acid salt], `NC[C@@H]1CCN(c2nc(N)nc3c2oc2ccc(Cl)cc23)C1` [Example 26, (S)-4-(3-Aminomethyl-pyrrolidin-1-yl)-8-chloro-benzo[4,5]furo[3,2-d]pyrimidin-2-ylamine trifluoroacetic acid salt] is 20-fold lower in Ki: 1820 nM for the first, 90 nM for the second.

First: CN1CCC(N(C)c2nc(N)nc3c2oc2ccc(F)cc23)C1 (centres unmarked) [Example 41, 8-Fluoro-N^4-methyl-N^4-(1-methyl-pyrrolidin-3-yl)-benzo[4,5]furo[3,2-d]pyrimidine-2,4-diamine trifluoroacetic acid salt]
Second: CN1CCN(c2nc(NC3CC3)nc3c2oc2ccc(Cl)cc23)CC1 [Example 119, [8-Chloro-4-(4-methyl-piperazin-1-yl)-benzo[4,5]furo[3,2-d]pyrimidin-2-yl]-cyclopropyl-amine]
The Ki of the first is 3.2-fold lower: 110 nM for the first, 350 nM for the second. The first binds more tightly here.

First: Nc1nc(N2C[C@@H]3C[C@H]2CN3)c2oc3ccccc3c2n1 [Example 33, (S,S)-4-(2,5-Diaza-bicyclo[2.2.1]hept-2-yl)-benzo[4,5]furo[3,2-d]pyrimidin-2-ylamine trifluoroacetic acid salt]
Second: Nc1nc(N2C[C@@H]3C[C@H]2CN3)c2sc3cc(C(F)(F)F)ccc3c2n1 [Example 53, (S,S)-4-(2,5-Diaza-bicyclo[2.2.1]hept-2-yl)-7-trifluoromethyl-benzo[4,5]thieno[3,2-d]pyrimidin-2-ylamine trifluoroacetic acid salt]
The Ki of the first is lower: 200 nM for the first, greater than 10000 nM for the second. The first binds more tightly here.

Going from `OCCNc1nc(N2C[C@H]3CCCN[C@H]3C2)c2oc3ccc(Cl)cc3c2n1` (relative stereo) [Example 117, (cis)-2-[8-Chloro-4-(octahydro-pyrrolo[3,4-b]pyridin-6-yl)-benzo[4,5]furo[3,2-d]pyrimidin-2-ylamino]-ethanol] to `CN1CCN(c2nc(N)nc3c2sc2cc(Br)ccc23)CC1` [Example 55, 7-Bromo-4-(4-methyl-piperazin-1-yl)-benzo[4,5]thieno[3,2-d]pyrimidin-2-ylamine trifluoroacetic acid salt], the Ki falls from 930 nM to 43 nM (22-fold). The second binds more tightly here.
